{"source": "the supplement of paper PMC10307832", "test_in_all_cases": "relative viability (nuclei count vs DMSO), 5 days (fraction); higher = more cells survive", "key": {"[1]": {"tested_on": "HCC-827", "summary_of_the_method": "(§1)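 Relative viability divides the nuclei count in treated wells by that in vehicle wells. Lung cancer cell lines were seeded in 1536-well plates, dosed by pin tool the next day, and fixed and stained after 5 days in one step with final 0.05% Triton X-100, 1% formaldehyde and 1 ug/ml Hoechst. Dosing was a single drug or a fixed anchor-drug dose plus five library-drug doses (not always all listed) in √10 steps, and values are medians of duplicate plates imaged at 4×.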"}, "[2]": {"tested_on": "NCI-H2126", "summary_of_the_method": "as §1"}, "[3]": {"tested_on": "NCI-H1395", "summary_of_the_method": "as §1"}, "[4]": {"tested_on": "LXF-289", "summary_of_the_method": "as §1"}, "[5]": {"tested_on": "NCI-H650", "summary_of_the_method": "as §1"}, "[6]": {"tested_on": "NCI-H2170", "summary_of_the_method": "as §1"}, "[7]": {"tested_on": "NCI-H647", "summary_of_the_method": "as §1"}, "[8]": {"tested_on": "NCI-H2347", "summary_of_the_method": "as §1"}, "[9]": {"tested_on": "NCI-H358", "summary_of_the_method": "as §1"}, "[10]": {"tested_on": "RERF-LC-KJ", "summary_of_the_method": "as §1"}, "[11]": {"tested_on": "NCI-H23", "summary_of_the_method": "as §1"}, "[12]": {"tested_on": "SW 900", "summary_of_the_method": "as §1"}, "[13]": {"tested_on": "LCLC-103H", "summary_of_the_method": "as §1"}, "[14]": {"tested_on": "PC-3 [JPC-3]", "summary_of_the_method": "as §1"}, "[15]": {"tested_on": "NCI-H441", "summary_of_the_method": "as §1"}, "[16]": {"tested_on": "LOU-NH91", "summary_of_the_method": "as §1"}, "[17]": {"tested_on": "NCI-H596", "summary_of_the_method": "as §1"}, "[18]": {"tested_on": "NCI-H1793", "summary_of_the_method": "as §1"}, "[19]": {"tested_on": "ChaGo-K-1", "summary_of_the_method": "as §1"}, "[20]": {"tested_on": "NCI-H322M", "summary_of_the_method": "as §1"}, "[21]": {"tested_on": "HOP-62", "summary_of_the_method": "as §1"}, "[22]": {"tested_on": "EPLC-272H", "summary_of_the_method": "as §1"}, "[23]": {"tested_on": "NCI-H1651", "summary_of_the_method": "as §1"}, "[24]": {"tested_on": "NCI-H1755", "summary_of_the_method": "as §1"}, "[25]": {"tested_on": "NCI-H2228", "summary_of_the_method": "as §1"}}}
{"smiles": "Nc1cccc2c1CN(C1CCC(=O)NC1=O)C2=O", "note": "(centres undefined) [Lenalidomide] + CC(=O)Nc1cccc(-n2c(=O)n(C3CC3)c(=O)c3c(Nc4ccc(I)cc4F)n(C)c(=O)c(C)c32)c1 [Trametinib] (partner 0.02 µM)", "values": [{"measurement": "relative viability", "setting": "[1]; first compound 0.253 µM", "result": 0.462}, {"measurement": "relative viability", "setting": "[1]; first compound 0.8 µM", "result": 0.594}, {"measurement": "relative viability", "setting": "[1]; first compound 2.53 µM", "result": 0.518}, {"measurement": "relative viability", "setting": "[1]; first compound 8 µM", "result": 0.52}, {"measurement": "relative viability", "setting": "[2]; first compound 0.253 µM", "result": 0.572}, {"measurement": "relative viability", "setting": "[2]; first compound 0.8 µM", "result": 0.526}, {"measurement": "relative viability", "setting": "[2]; first compound 2.53 µM", "result": 0.597}, {"measurement": "relative viability", "setting": "[2]; first compound 8 µM", "result": 0.462}, {"measurement": "relative viability", "setting": "[3]; first compound 0.253 µM", "result": 0.988}, {"measurement": "relative viability", "setting": "[3]; first compound 2.53 µM", "result": 1.1}, {"measurement": "relative viability", "setting": "[3]; first compound 8 µM", "result": 0.929}, {"measurement": "relative viability", "setting": "[4]; first compound 0.253 µM", "result": 0.661}, {"measurement": "relative viability", "setting": "[4]; first compound 0.8 µM", "result": 0.604}, {"measurement": "relative viability", "setting": "[4]; first compound 2.53 µM", "result": 0.671}, {"measurement": "relative viability", "setting": "[4]; first compound 8 µM", "result": 0.691}, {"measurement": "relative viability", "setting": "[5]; first compound 0.253 µM", "result": 0.983}, {"measurement": "relative viability", "setting": "[5]; first compound 0.8 µM", "result": 1}, {"measurement": "relative viability", "setting": "[5]; first compound 2.53 µM", "result": 0.963}, {"measurement": "relative viability", "setting": "[5]; first compound 8 µM", "result": 0.891}, {"measurement": "relative viability", "setting": "[6]; first compound 0.253 µM", "result": 0.933}, {"measurement": "relative viability", "setting": "[6]; first compound 0.8 µM", "result": 0.886}, {"measurement": "relative viability", "setting": "[6]; first compound 2.53 µM", "result": 0.954}, {"measurement": "relative viability", "setting": "[6]; first compound 8 µM", "result": 0.823}, {"measurement": "relative viability", "setting": "[7]; first compound 0.253 µM", "result": 0.47}, {"measurement": "relative viability", "setting": "[7]; first compound 0.8 µM", "result": 0.413}, {"measurement": "relative viability", "setting": "[7]; first compound 2.53 µM", "result": 0.691}, {"measurement": "relative viability", "setting": "[7]; first compound 8 µM", "result": 0.422}, {"measurement": "relative viability", "setting": "[8]; first compound 0.253 µM", "result": 0.329}, {"measurement": "relative viability", "setting": "[8]; first compound 0.8 µM", "result": 0.279}, {"measurement": "relative viability", "setting": "[8]; first compound 2.53 µM", "result": 0.323}, {"measurement": "relative viability", "setting": "[8]; first compound 8 µM", "result": 0.179}, {"measurement": "relative viability", "setting": "[9]; first compound 0.8 µM", "result": 0.132}, {"measurement": "relative viability", "setting": "[9]; first compound 2.53 µM", "result": 0.133}, {"measurement": "relative viability", "setting": "[9]; first compound 8 µM", "result": 0.19}, {"measurement": "relative viability", "setting": "[10]; first compound 0.253 µM", "result": 0.875}, {"measurement": "relative viability", "setting": "[10]; first compound 0.8 µM", "result": 0.886}, {"measurement": "relative viability", "setting": "[10]; first compound 2.53 µM", "result": 0.915}, {"measurement": "relative viability", "setting": "[10]; first compound 8 µM", "result": 0.85}, {"measurement": "relative viability", "setting": "[11]; first compound 0.253 µM", "result": 0.398}, {"measurement": "relative viability", "setting": "[11]; first compound 2.53 µM", "result": 0.426}, {"measurement": "relative viability", "setting": "[11]; first compound 8 µM", "result": 0.412}, {"measurement": "relative viability", "setting": "[12]; first compound 2.53 µM", "result": 1}, {"measurement": "relative viability", "setting": "[12]; first compound 8 µM", "result": 0.76}, {"measurement": "relative viability", "setting": "[13]; first compound 0.253 µM", "result": 0.687}, {"measurement": "relative viability", "setting": "[13]; first compound 0.8 µM", "result": 0.623}, {"measurement": "relative viability", "setting": "[13]; first compound 2.53 µM", "result": 0.656}, {"measurement": "relative viability", "setting": "[13]; first compound 8 µM", "result": 0.617}, {"measurement": "relative viability", "setting": "[14]; first compound 0.253 µM", "result": 0.705}, {"measurement": "relative viability", "setting": "[14]; first compound 0.8 µM", "result": 0.681}, {"measurement": "relative viability", "setting": "[14]; first compound 2.53 µM", "result": 0.731}, {"measurement": "relative viability", "setting": "[14]; first compound 8 µM", "result": 0.743}, {"measurement": "relative viability", "setting": "[15]; first compound 0.253 µM", "result": 0.484}, {"measurement": "relative viability", "setting": "[15]; first compound 0.8 µM", "result": 0.258}, {"measurement": "relative viability", "setting": "[15]; first compound 2.53 µM", "result": 0.623}, {"measurement": "relative viability", "setting": "[15]; first compound 8 µM", "result": 0.387}, {"measurement": "relative viability", "setting": "[16]; first compound 0.253 µM", "result": 0.786}, {"measurement": "relative viability", "setting": "[16]; first compound 0.8 µM", "result": 0.78}, {"measurement": "relative viability", "setting": "[16]; first compound 2.53 µM", "result": 0.771}, {"measurement": "relative viability", "setting": "[16]; first compound 8 µM", "result": 0.679}, {"measurement": "relative viability", "setting": "[17]; first compound 0.253 µM", "result": 0.73}, {"measurement": "relative viability", "setting": "[17]; first compound 0.8 µM", "result": 0.83}, {"measurement": "relative viability", "setting": "[17]; first compound 2.53 µM", "result": 0.938}, {"measurement": "relative viability", "setting": "[17]; first compound 8 µM", "result": 0.766}, {"measurement": "relative viability", "setting": "[18]; first compound 0.253 µM", "result": 0.458}, {"measurement": "relative viability", "setting": "[18]; first compound 2.53 µM", "result": 0.474}, {"measurement": "relative viability", "setting": "[18]; first compound 8 µM", "result": 0.451}, {"measurement": "relative viability", "setting": "[19]; first compound 0.253 µM", "result": 0.925}, {"measurement": "relative viability", "setting": "[19]; first compound 0.8 µM", "result": 0.897}, {"measurement": "relative viability", "setting": "[19]; first compound 2.53 µM", "result": 1.02}, {"measurement": "relative viability", "setting": "[19]; first compound 8 µM", "result": 0.904}, {"measurement": "relative viability", "setting": "[20]; first compound 0.253 µM", "result": 0.507}, {"measurement": "relative viability", "setting": "[20]; first compound 0.8 µM", "result": 0.527}, {"measurement": "relative viability", "setting": "[20]; first compound 2.53 µM", "result": 0.508}, {"measurement": "relative viability", "setting": "[20]; first compound 8 µM", "result": 0.511}, {"measurement": "relative viability", "setting": "[21]; first compound 0.253 µM", "result": 0.34}, {"measurement": "relative viability", "setting": "[21]; first compound 0.8 µM", "result": 0.338}, {"measurement": "relative viability", "setting": "[21]; first compound 2.53 µM", "result": 0.4}, {"measurement": "relative viability", "setting": "[21]; first compound 8 µM", "result": 0.363}, {"measurement": "relative viability", "setting": "[22]; first compound 0.253 µM", "result": 0.284}, {"measurement": "relative viability", "setting": "[22]; first compound 0.8 µM", "result": 0.272}, {"measurement": "relative viability", "setting": "[22]; first compound 2.53 µM", "result": 0.34}, {"measurement": "relative viability", "setting": "[22]; first compound 8 µM", "result": 0.313}, {"measurement": "relative viability", "setting": "[23]; first compound 0.253 µM", "result": 0.79}, {"measurement": "relative viability", "setting": "[23]; first compound 0.8 µM", "result": 0.932}, {"measurement": "relative viability", "setting": "[23]; first compound 2.53 µM", "result": 0.902}, {"measurement": "relative viability", "setting": "[23]; first compound 8 µM", "result": 0.82}, {"measurement": "relative viability", "setting": "[24]; first compound 0.253 µM", "result": 0.729}, {"measurement": "relative viability", "setting": "[24]; first compound 0.8 µM", "result": 0.806}, {"measurement": "relative viability", "setting": "[24]; first compound 2.53 µM", "result": 0.766}, {"measurement": "relative viability", "setting": "[24]; first compound 8 µM", "result": 0.63}, {"measurement": "relative viability", "setting": "[25]; first compound 0.253 µM", "result": 0.629}, {"measurement": "relative viability", "setting": "[25]; first compound 0.8 µM", "result": 0.315}, {"measurement": "relative viability", "setting": "[25]; first compound 2.53 µM", "result": 0.695}, {"measurement": "relative viability", "setting": "[25]; first compound 8 µM", "result": 0.363}]}
